Measurements from the supplement of paper PMC10307832.

How the values were obtained:
Assay in all cases: relative viability (nuclei count vs DMSO), 5 days (fraction); higher = more cells survive
[1] = compound: NCC(=O)Nc1ccc(-n2nc(C(F)(F)F)cc2-c2ccc3c(ccc4ccccc43)c2)cc1 + CCNC(=O)c1noc(-c2cc(C(C)C)c(O)cc2O)c1-c1ccc(CN2CCOCC2)cc1 [Luminespib] (partner 0.01 µM)
Summary of the method: (§1)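 Relative viability was taken as the ratio of nuclei in treated wells to nuclei in vehicle wells. Lung cancer cell lines in 1536-well plates received compounds by pin tool one day after seeding, either one drug alone or a fixed anchor-drug dose plus five library-drug doses (not always all listed) in √10 steps. Nuclei were counted on 4× images after 5 days of treatment, and values are medians of duplicate plates.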

[2] = compound: NCC(=O)Nc1ccc(-n2nc(C(F)(F)F)cc2-c2ccc3c(ccc4ccccc43)c2)cc1 + CS(=O)(=O)CCNCc1ccc(-c2ccc3ncnc(Nc4ccc(OCc5cccc(F)c5)c(Cl)c4)c3c2)o1 [Lapatinib] (partner 2 µM)
Summary of the method: as §1

[3] = compound: NCC(=O)Nc1ccc(-n2nc(C(F)(F)F)cc2-c2ccc3c(ccc4ccccc43)c2)cc1 + COc1cccc2cc(-c3nc([C@H]4CC[C@H](C(=O)O)CC4)n4ncnc(N)c34)[nH]c12 [OSI-027] (partner 0.5 µM)
Summary of the method: as §1

[4] = compound: NCC(=O)Nc1ccc(-n2nc(C(F)(F)F)cc2-c2ccc3c(ccc4ccccc43)c2)cc1 + NC(=O)Nc1cc(-c2cccc(F)c2)sc1C(=O)N[C@H]1CCCNC1 [AZD7762] (partner 0.2 µM)
Summary of the method: as §1

In the case of NCI-H1650, the relative viability ([1]; first compound 0.02 µM) is reported as 0.202, the relative viability ([1]; first compound 0.06325 µM) is reported as 0.229 and the relative viability ([1]; first compound 0.6325 µM) is reported as 0.166. It also gave a relative viability ([1]; first compound 2 µM) of 0.199, a relative viability ([2]; first compound 0.02 µM) of 0.812 and a relative viability ([2]; first compound 0.06325 µM) of 0.797. The relative viability ([2]; first compound 0.2 µM) was 0.472, the relative viability ([2]; first compound 0.6325 µM) was 0.801 and the relative viability ([2]; first compound 2 µM) was 0.929. The relative viability ([3]; first compound 0.02 µM) was 0.7, the relative viability ([3]; first compound 0.06325 µM) was 0.806 and the relative viability ([3]; first compound 0.6325 µM) was 0.73. The relative viability ([3]; first compound 2 µM) was 0.634.
For NCI-H1703, the relative viability ([4]; first compound 0.02 µM) was 0.127, the relative viability ([4]; first compound 0.2 µM) was 0.122 and the relative viability ([4]; first compound 0.6325 µM) was 0.124. For the same cell line, the relative viability ([4]; first compound 2 µM) was 0.142, the relative viability ([2]; first compound 0.02 µM) was 1.03 and the relative viability ([2]; first compound 0.06325 µM) was 1.09. It also gave a relative viability ([2]; first compound 0.2 µM) of 1.41, a relative viability ([2]; first compound 0.6325 µM) of 0.964 and a relative viability ([2]; first compound 2 µM) of 1.04.
With NCI-H2009 the relative viability ([1]; first compound 0.02 µM) was 1.1, the relative viability ([1]; first compound 0.06325 µM) was 0.932 and the relative viability ([1]; first compound 0.2 µM) was 1.09. The relative viability ([1]; first compound 0.6325 µM) was 1.03, the relative viability ([1]; first compound 2 µM) was 1.03 and the relative viability ([2]; first compound 0.02 µM) was 0.872. For the same cell line, the relative viability ([2]; first compound 0.06325 µM) was 0.948, the relative viability ([2]; first compound 0.2 µM) was 0.868 and the relative viability ([2]; first compound 0.6325 µM) was 0.935. For the same cell line, the relative viability ([2]; first compound 2 µM) was 0.958, the relative viability ([3]; first compound 0.02 µM) was 0.573 and the relative viability ([3]; first compound 0.06325 µM) was 0.613. It also gave a relative viability ([3]; first compound 0.2 µM) of 0.703, a relative viability ([3]; first compound 0.6325 µM) of 0.604 and a relative viability ([3]; first compound 2 µM) of 0.609.
With NCI-H2023 the relative viability ([1]; first compound 0.02 µM) was 0.681, the relative viability ([1]; first compound 0.06325 µM) was 0.906 and the relative viability ([1]; first compound 0.2 µM) was 0.972. For the same cell line, the relative viability ([1]; first compound 0.6325 µM) was 0.739, the relative viability ([1]; first compound 2 µM) was 0.758 and the relative viability ([2]; first compound 0.02 µM) was 0.747. The relative viability ([2]; first compound 0.06325 µM) was 1.2, the relative viability ([2]; first compound 0.2 µM) was 0.476 and the relative viability ([2]; first compound 0.6325 µM) was 0.838. The relative viability ([2]; first compound 2 µM) was 0.74, the relative viability ([3]; first compound 0.02 µM) was 0.381 and the relative viability ([3]; first compound 0.06325 µM) was 0.422. It also gave a relative viability ([3]; first compound 0.2 µM) of 0.428, a relative viability ([3]; first compound 0.6325 µM) of 0.422 and a relative viability ([3]; first compound 2 µM) of 0.351.
With NCI-H2228 the relative viability ([1]; first compound 0.02 µM) was 0.144, the relative viability ([1]; first compound 0.06325 µM) was 0.16 and the relative viability ([1]; first compound 0.2 µM) was 0.177. It also gave a relative viability ([1]; first compound 0.6325 µM) of 0.154, a relative viability ([1]; first compound 2 µM) of 0.16 and a relative viability ([2]; first compound 0.02 µM) of 1.1. It also gave a relative viability ([2]; first compound 0.06325 µM) of 1.21, a relative viability ([2]; first compound 0.2 µM) of 1.14 and a relative viability ([2]; first compound 0.6325 µM) of 0.935. For the same cell line, the relative viability ([2]; first compound 2 µM) was 0.804, the relative viability ([3]; first compound 0.02 µM) was 0.672 and the relative viability ([3]; first compound 0.06325 µM) was 0.535. For the same cell line, the relative viability ([3]; first compound 0.2 µM) was 0.904, the relative viability ([3]; first compound 0.6325 µM) was 0.644 and the relative viability ([3]; first compound 2 µM) was 0.584.
Work on NCI-H2342 yielded a relative viability ([4]; first compound 0.02 µM) of 0.666, a relative viability ([4]; first compound 0.06325 µM) of 0.633 and a relative viability ([4]; first compound 0.2 µM) of 0.502. The relative viability ([4]; first compound 0.6325 µM) was 0.449, the relative viability ([4]; first compound 2 µM) was 0.558 and the relative viability ([1]; first compound 0.02 µM) was 0.626. For the same cell line, the relative viability ([1]; first compound 0.06325 µM) was 0.875, the relative viability ([1]; first compound 0.2 µM) was 0.75 and the relative viability ([1]; first compound 0.6325 µM) was 0.75. It also gave a relative viability ([1]; first compound 2 µM) of 0.688, a relative viability ([3]; first compound 0.02 µM) of 0.666 and a relative viability ([3]; first compound 0.06325 µM) of 0.726. The relative viability ([3]; first compound 0.2 µM) was 0.635, the relative viability ([3]; first compound 0.6325 µM) was 0.539 and the relative viability ([3]; first compound 2 µM) was 0.648.
SK-LU-1 gave a relative viability ([1]; first compound 0.02 µM) of 0.208, a relative viability ([1]; first compound 0.06325 µM) of 0.182 and a relative viability ([1]; first compound 0.2 µM) of 0.193. The relative viability ([1]; first compound 0.6325 µM) was 0.206, the relative viability ([1]; first compound 2 µM) was 0.18 and the relative viability ([2]; first compound 0.02 µM) was 0.87. The relative viability ([2]; first compound 0.06325 µM) was 0.841, the relative viability ([2]; first compound 0.2 µM) was 0.887 and the relative viability ([2]; first compound 0.6325 µM) was 0.905. It also gave a relative viability ([2]; first compound 2 µM) of 0.929, a relative viability ([3]; first compound 0.02 µM) of 0.343 and a relative viability ([3]; first compound 0.06325 µM) of 0.358. The relative viability ([3]; first compound 0.2 µM) was 0.441, the relative viability ([3]; first compound 0.6325 µM) was 0.313 and the relative viability ([3]; first compound 2 µM) was 0.374.
Cell Line SK-MES-1 has a relative viability ([1]; first compound 0.02 µM) of 0.828, a relative viability ([1]; first compound 0.06325 µM) of 0.904 and a relative viability ([1]; first compound 0.2 µM) of 0.897. It also gave a relative viability ([1]; first compound 0.6325 µM) of 0.842, a relative viability ([1]; first compound 2 µM) of 0.802 and a relative viability ([2]; first compound 0.02 µM) of 0.485. For the same cell line, the relative viability ([2]; first compound 0.06325 µM) was 0.403, the relative viability ([2]; first compound 0.2 µM) was 0.546 and the relative viability ([2]; first compound 0.6325 µM) was 0.455. The relative viability ([2]; first compound 2 µM) was 0.46, the relative viability ([3]; first compound 0.02 µM) was 0.677 and the relative viability ([3]; first compound 0.06325 µM) was 0.575. For the same cell line, the relative viability ([3]; first compound 0.2 µM) was 0.622, the relative viability ([3]; first compound 0.6325 µM) was 0.616 and the relative viability ([3]; first compound 2 µM) was 0.646.
SW 900 was tested, and the relative viability ([4]; first compound 0.02 µM) was 0.635, the relative viability ([4]; first compound 0.06325 µM) was 0.558 and the relative viability ([4]; first compound 0.2 µM) was 0.701. For the same cell line, the relative viability ([4]; first compound 0.6325 µM) was 0.659, the relative viability ([4]; first compound 2 µM) was 0.655 and the relative viability ([1]; first compound 0.06325 µM) was 0.187. The relative viability ([1]; first compound 0.2 µM) was 0.188, the relative viability ([1]; first compound 0.6325 µM) was 0.209 and the relative viability ([1]; first compound 2 µM) was 0.169. For the same cell line, the relative viability ([3]; first compound 0.06325 µM) was 0.54, the relative viability ([3]; first compound 0.2 µM) was 0.627 and the relative viability ([3]; first compound 0.6325 µM) was 0.648. The relative viability ([3]; first compound 2 µM) was 0.507.
SW 1573 showed a relative viability ([1]; first compound 0.02 µM) of 0.252, a relative viability ([1]; first compound 0.06325 µM) of 0.151 and a relative viability ([1]; first compound 0.2 µM) of 0.151. The relative viability ([1]; first compound 0.6325 µM) was 0.677, the relative viability ([1]; first compound 2 µM) was 0.209 and the relative viability ([2]; first compound 0.02 µM) was 1.17. For the same cell line, the relative viability ([2]; first compound 0.06325 µM) was 1, the relative viability ([2]; first compound 0.2 µM) was 1.17 and the relative viability ([2]; first compound 0.6325 µM) was 0.978. It also gave a relative viability ([2]; first compound 2 µM) of 1.08, a relative viability ([3]; first compound 0.02 µM) of 0.593 and a relative viability ([3]; first compound 0.06325 µM) of 0.658. The relative viability ([3]; first compound 0.2 µM) was 0.759, the relative viability ([3]; first compound 0.6325 µM) was 0.487 and the relative viability ([3]; first compound 2 µM) was 0.551.
Cell Line UMC-11 has a relative viability ([1]; first compound 0.02 µM) of 1.06, a relative viability ([1]; first compound 0.06325 µM) of 0.965 and a relative viability ([1]; first compound 0.2 µM) of 1.05. The relative viability ([1]; first compound 0.6325 µM) was 0.948, the relative viability ([1]; first compound 2 µM) was 0.948 and the relative viability ([2]; first compound 0.02 µM) was 0.952. The relative viability ([2]; first compound 0.06325 µM) was 1.09, the relative viability ([2]; first compound 0.2 µM) was 0.985 and the relative viability ([2]; first compound 0.6325 µM) was 1.15. For the same cell line, the relative viability ([2]; first compound 2 µM) was 0.898, the relative viability ([3]; first compound 0.02 µM) was 0.402 and the relative viability ([3]; first compound 0.06325 µM) was 0.475. For the same cell line, the relative viability ([3]; first compound 0.2 µM) was 0.485, the relative viability ([3]; first compound 0.6325 µM) was 0.443 and the relative viability ([3]; first compound 2 µM) was 0.453.
